Measurements reported in US20080269161A1, “Compositions and Methods Relating to Mitochondrial Hyperpolarization in Neurological Disease” (priority 2005, published 2008).
“Also recorded” adds a separate entry of the source.

How the values were obtained:
[1] = tested on: Tat-stimulated TNF release in monocytes; assay: Tat-stimulated TNF release by primary monocytes (ELISA); format: cell-based, human; conditions: 4 h
Method: Human primary monocytes were treated with Tat (100 nM) in the presence or absence of the A2AR agonist, CGS21680 (CGS; 1 μM) or the A2AR antagonist, ZM241385 (100 nM) for 4 h. TNF levels in culture supernatants were then quantitated by ELISA. Data represent mean+SEM of three replicates, from a single representative experiment
Primary monocytes were seeded in separate triplicate wells, and exposed independently to LPS (100 ng/ml), vehicle (NT) or Tat (100 nM) in the presence or absence of the A2AR agonist, CGS21680 (1 μM). After 4 h, cells were harvested. (A) TNF was measured in cell supernatants by ELISA Mean data values (±S.D.) are shown for the triplicate wells. (B) The corresponding cells from each well in panel A were lysed and subjected to qRTPCR analysis. Each cDNA sample was analyzed in quadruplicate. Assay results are presented as fold induction of gene expression, compared to untreated cells, after normalization to levels of GAPDH. Data represent mean±SD for each individual experimental replicate/well.
Human primary monocytes were treated with Tat (100 nM) in the presence or absence of the A2AR agonist, ATL313 (1-4 nM) or the A2AR antagonist, ATL455 (1-4 nM) for 4 h. TNF levels in culture supernatants were then quantitated by ELISA. […]
Human primary monocytes were treated with Tat (100 nM) in the presence or absence of the A2AR agonist, ATL313 (at the indicated doses) for 4 h. TNF levels in culture supernatants were then quantitated by ELISA. […]
(6) Primary monocytes. […] Results are compared for both populations, as well as purity (as assessed by immunophenotyping using CD14, CD68 and MHC class II).
The effect of an A2AR agonist on TNF release by primary human monocytes was also determined. Monocytes were stimulated with HIV-1 Tat, in the presence or absence of the A2AR agonist CGS21680 or the A2AR antagonist ZM251385 and TNF release was then measured in cell culture supernatants using an ELISA assay.
Quantitative real-time PCR analysis was used to measure TNF message levels in Tat-treated monocytes. […]

[2] = tested on: rat cerebellar granule neurons (CGNs); assay: Tat-induced apoptosis of cerebellar granule neurons (TUNEL); format: cell-based; conditions: Tat 500 nM, 48 h
Method: (§1) CGNs were exposed to HIV-1 Tat (Tat, 500 nM), or vehicle alone (NT), in the presence or absence of the A2A antagonist, ZM241385. After 48 h, cultures were analyzed for the percentage of apoptotic cells using the TUNEL assay. Data represent mean±SEM for one experiment that was performed in triplicate; data are representative of two independent experiments.
as §1, with “(No Tat),” for “(NT),”, “A2AR antagonists, ATL455 and ZM241385, or the A2AR agonists ATL313 and CGS21680.” for “A2A antagonist, ZM241385.”
(1) Primary rat cerebellar granule neurons (CGNs). CGNs represent a highly homogenous population of primary neurons which are susceptible to Tat and PAF-mediated cell killing and have been used in many of previous studies. CGN cells are isolated according to published procedures [Maggirwar, S. B., et al. 1999. J Neurochem 73:578-86] [Tong, N., et al. 2001. Eur J Neurosci 13:1913-22].
78(4): p. […] 22(6): p. 1102-6].
Primary rat cerebellar granule neurons (CGNs) were exposed to a neurotoxic concentration of HIV-1 Tat, in the presence or absence of an A2AR antagonist (ZM241385). […] It is important to note that CGNs express adenosine A2A receptors [Vacas, J., et al. 2003. Brain Res 992:272-280].
Primary cultures of rat cerebellar granule neurons (CGNs) were exposed to HIV-Tat ([…]) alone or together with increasing doses of the A2AR antagonist ATL-455 or A2A agonists ATL313 or CGS21680. Cells are treated with the test compounds for defined time intervals of up to 48 hours (1, 4, 8, 24, and 48 hours).

[3] = target: T1, human adenosine receptor A1 (Homo sapiens, UniProt P30542); conditions: recombinant human receptor; cited from earlier work
T1 sequence (P30542 1-326): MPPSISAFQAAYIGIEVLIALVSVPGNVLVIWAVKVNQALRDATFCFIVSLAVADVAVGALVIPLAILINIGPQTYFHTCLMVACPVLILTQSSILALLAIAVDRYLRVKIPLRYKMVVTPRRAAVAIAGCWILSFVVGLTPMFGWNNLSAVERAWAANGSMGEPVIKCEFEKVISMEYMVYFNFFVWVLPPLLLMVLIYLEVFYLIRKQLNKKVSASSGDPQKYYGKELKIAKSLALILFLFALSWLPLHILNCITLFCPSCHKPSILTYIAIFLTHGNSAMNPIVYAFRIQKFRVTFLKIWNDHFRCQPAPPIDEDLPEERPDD

[4] = target: human adenosine receptor A2A (Homo sapiens, UniProt P29274); conditions: recombinant human receptor; cited from earlier work
[5] = target: T2, human adenosine receptor A2B (Homo sapiens, UniProt P29275); conditions: recombinant human receptor; cited from earlier work
T2 sequence (P29275 1-332): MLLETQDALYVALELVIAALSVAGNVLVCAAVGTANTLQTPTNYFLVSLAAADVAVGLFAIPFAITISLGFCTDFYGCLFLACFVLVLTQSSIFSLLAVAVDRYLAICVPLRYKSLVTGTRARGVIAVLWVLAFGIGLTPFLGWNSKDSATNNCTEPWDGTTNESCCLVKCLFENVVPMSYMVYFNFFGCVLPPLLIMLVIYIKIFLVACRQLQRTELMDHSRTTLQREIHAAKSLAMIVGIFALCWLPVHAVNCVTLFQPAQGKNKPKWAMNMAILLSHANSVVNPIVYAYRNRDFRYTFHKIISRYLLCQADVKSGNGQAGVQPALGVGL

[6] = target: T3, human adenosine receptor A3 (Homo sapiens, UniProt P0DMS8); conditions: recombinant human receptor; cited from earlier work
T3 sequence (P0DMS8 1-318): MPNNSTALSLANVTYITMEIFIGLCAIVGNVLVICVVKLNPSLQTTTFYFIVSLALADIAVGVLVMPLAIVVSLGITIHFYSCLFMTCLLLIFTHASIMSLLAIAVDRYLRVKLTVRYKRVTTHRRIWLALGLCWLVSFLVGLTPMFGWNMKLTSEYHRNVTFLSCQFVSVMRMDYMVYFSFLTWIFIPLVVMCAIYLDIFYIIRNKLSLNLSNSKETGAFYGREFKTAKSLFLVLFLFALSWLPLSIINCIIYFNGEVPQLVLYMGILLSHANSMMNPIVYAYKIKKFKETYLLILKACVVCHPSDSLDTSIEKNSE

Chain of human adenosine receptor A2A (P29274 whole entry): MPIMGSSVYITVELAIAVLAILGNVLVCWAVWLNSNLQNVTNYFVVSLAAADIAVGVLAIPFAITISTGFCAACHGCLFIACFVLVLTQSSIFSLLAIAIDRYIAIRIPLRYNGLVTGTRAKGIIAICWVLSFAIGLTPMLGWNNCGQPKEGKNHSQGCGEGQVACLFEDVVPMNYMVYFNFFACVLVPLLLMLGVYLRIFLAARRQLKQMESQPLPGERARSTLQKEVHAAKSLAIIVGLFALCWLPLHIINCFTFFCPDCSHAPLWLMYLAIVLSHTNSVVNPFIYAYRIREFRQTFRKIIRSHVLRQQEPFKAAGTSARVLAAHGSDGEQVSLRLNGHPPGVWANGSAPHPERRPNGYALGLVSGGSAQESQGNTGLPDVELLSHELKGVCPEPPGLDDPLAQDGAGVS

Q: With `COC(=O)N1CCC(CC#Cc2nc(N)c3ncn(C4OC(C(=O)NC5CC5)C(O)C4O)c3n2)CC1` (stereo not shown) [ATL313, 4-{3-[6-amino-9-(5-cyclopropylcarbamoyl-3,4-dihydroxytetrahydrofuran-2-yl)-9H-purin-2-yl]prop-2-ynyl}piperidine-1-carboxylic acid methyl ester] as the compound, how does the IC50 ([1]; Homo sapiens, Monocyte, read-out: approximate IC50 for inhibitory effect on Tat-stimulated TNF release in monocytes) read?
A: < 1 nM

Q: What about the “effect on Tat-induced monocyte activation (TNF release)” value ([1]; Tat 100 nM, CGS21680 1 μM, ATL313, ATL455 1-4 nM) of the same compound?
A: very similar results; also recorded: opposed

Q: What about the “effect on Tat-induced neuronal apoptosis” value [2] of the same compound?
A: did not result in an increase in cell death

Q: And the Ki [3]?
A: 52 nM

Q: What about the Ki [4] of the same compound?
A: 0.6 nM

Q: And the Ki [5]?
A: > 1000 nM

Q: What about the Ki [6] of the same compound?
A: 320 nM
